Experimental data taken from the NIST ThermoML archive (doi:10.1021/acs.jced.5b01075).

Experiment: xn = mol fraction of the nth substance listed
Conditions: for viscosity: 100 kPa, Liquid, Concentric cylinders viscometry; for surface tension liquid-gas: 294.2 K, Pendant drop shape

C1CC[C@H]2CCCC[C@@H]2C1 [trans-decahydronaphthalene] + c1ccc2c(c1)CCCC2
viscosity [mPa·s]
Conditions | 293.15 K | 303.15 K | 313.15 K | 323.15 K | 333.15 K | 343.15 K | 353.15 K | 363.15 K | 373.15 K
x2 = 0.1044 | 2.07 | 1.74 | 1.48 | 1.27 | 1.1 | 0.968 | 0.856 | 0.765 | 0.689
x2 = 0.2075 | 2.03 | 1.71 | 1.46 | 1.25 | 1.09 | 0.957 | 0.847 | 0.758 | 0.683
x2 = 0.3094 | 2.02 | 1.7 | 1.44 | 1.24 | 1.08 | 0.95 | 0.842 | 0.753 | 0.68
x2 = 0.4109 | 2 | 1.68 | 1.43 | 1.23 | 1.07 | 0.943 | 0.836 | 0.749 | 0.676
x2 = 0.5112 | 2.02 | 1.69 | 1.44 | 1.24 | 1.08 | 0.947 | 0.84 | 0.752 | 0.679
x2 = 0.6106 | 2.04 | 1.71 | 1.45 | 1.25 | 1.08 | 0.951 | 0.843 | 0.755 | 0.685
x2 = 0.7093 | 2.07 | 1.73 | 1.46 | 1.26 | 1.09 | 0.958 | 0.849 | 0.76 | 0.687
x2 = 0.807 | 2.11 | 1.75 | 1.48 | 1.27 | 1.1 | 0.968 | 0.858 | 0.768 | 0.694
x2 = 0.9039 | 2.17 | 1.8 | 1.51 | 1.29 | 1.12 | 0.982 | 0.87 | 0.778 | 0.703

Conditions | surface tension liquid-gas [mN/m]
x2 = 0.1044 | 30.5
x2 = 0.2075 | 31
x2 = 0.3094 | 31.4
x2 = 0.4109 | 32.1
x2 = 0.5112 | 32.3
x2 = 0.6106 | 32.9
x2 = 0.7093 | 33.6
x2 = 0.807 | 34.1
x2 = 0.9039 | 35
